Source: patent US9968583B2, “Method of manufacture of liposome composition” (EISAI R & D MANAGEMENT CO., LTD., priority 2009, dated 2018)
Counter-ions that a name gives are not always drawn. Like-named read-outs stand apart in the source and are kept apart here. Each block holds one molecule with its values, some of them ahead of it.

Columns and labels:
[1] = complex with HP-β-cyclodextrin, Non-patent Literature 6, cited from earlier work
[2] = Eribulin mesylate blood plasma and tumor tissue PK in LOX cancer-bearing mice (Embodiment 11); format: in vivo; conditions: female, NU/NU nude, mouse, iv
Method: A blood sample was taken and tumor tissue extraction was carried out with a cardiac puncture at fixed periods after administration (15 minutes, 30 minutes, 1, 2, 4, 8, 12, 24, 36, and 48 hours) (n=3). The blood was sampled in a test tube containing heparin, and within 30 minutes of the sampling, the blood was separated by centrifuging at 1,500×g for 10 minutes at 4° C. to obtain the blood plasma. All of the tumor tissue was extracted, washed with PBS, and wiped with water-absorbent paper, and then the tissue weight was immediately weighed. The tissue was placed in a test tube and cooled in ice water, and then stored at −80° C. until analysis was carried out.
The PK parameters were calculated using non-compartment model analysis software (WinNonlin version 5.0.1).

[3] = system: WiDr, human colon cancer cell line; experiment: Antitumor activity of eribulin mesylate in WiDr cancer-bearing nude mice (Embodiment 12, FIG. 5); format: in vivo; conditions: 2 mg/kg; caudal vein, 2 times in 7-day intervals; five mice per group
Method: WiDr, which is a human colon cancer cell line, was cultured and grown in a 10% bovine fetal serum-containing RPMI1640 culture. The cells were separated from the flask using 0.05% Trypsin-EDTA solution and collected. After washing with PBS, the cells were suspended in Hank's Balanced Salt Solution (manufactured by Gibco BRL Co. Ltd.) so as to be 5×10^7 cells/mL and kept on ice. 0.1 mL of cell suspension liquid were subcutaneously injected in the right ventral portion of 7-week old nude mice (Charles River Laboratories Japan, Inc.). Each mouse was observed daily, and notes were made appropriately in cases where abnormal conditions were found. Calipers were used to measure the tumor size over time, and the tumor size was calculated based on the calculation formula: major axis×(minor axis squared)÷2. At the point when the tumor size was 100 to 200 mm^3, the mice were separated into groups such that the average values of the tumor sizes and the mouse body weights were uniform among the test groups (five mice per test group), and the drug was administered into the caudal vein (0.2 mL/20 g; 2 times in 7-day intervals).

[4] = system: FaDu, human pharyngeal squamous cell carcinoma line; experiment: Antitumor activity of eribulin mesylate in FaDu cancer-bearing nude mice (Embodiment 13, FIG. 6); format: in vivo; conditions: 4.0 mg/kg free bodies, caudal vein, 3 times in 7-day intervals
Method: FaDu (obtained from the American Type Culture Collection), which is a human pharyngeal squamous cell carcinoma line, was cultured and grown in a 10% bovine fetal serum-containing MEM culture. The cells were separated from the flask using 0.05% Trypsin-EDTA solution and collected. After washing with PBS, the cells were suspended in PBS so as to be 5×10^7 cells/mL and then kept on ice. 0.1 mL of cell suspension liquid were subcutaneously injected in the right ventral portion of 6-week old nude mice (Charles River Laboratories Japan, Inc.). Each mouse was observed daily, and notes made appropriately in cases where abnormal conditions were found. Calipers were used to measure the tumor size over time, and the tumor size was calculated based on the calculation formula: major axis×(minor axis squared)÷2. At the point when the tumor size was 100 to 200 mm^3, the mice were separated into groups such that the average values of the tumor sizes and the body weights of mice were uniform among the test groups (five mice per test group), and the drug was administered into the caudal vein (0.2 mL/20 g; 3 times in 7-day intervals).

[5] = system: FaDu, human pharyngeal squamous cell carcinoma line; experiment: Antitumor activity of eribulin mesylate in FaDu cancer-bearing nude mice (Embodiment 14, FIG. 7); format: in vivo; conditions: 4.0 mg/kg free bodies, caudal vein, 3 times in 7-day intervals
Method: FaDu (obtained from the American Type Culture Collection), which is a human pharyngeal squamous cell carcinoma line, was cultured and grown in a 10% bovine fetal serum-containing MEM culture. The cells were separated from the flask using 0.05% Trypsin-EDTA solution and collected. After washing with PBS, the cells were suspended in PBS so as to be 5×10^7 cells/mL and kept on ice. 0.1 mL of cell suspension liquid was subcutaneously injected in the right ventral portion of 6-week old nude mice (Charles River Laboratories Japan, Inc.). Each mouse was observed daily, and notes were made appropriately in cases where abnormal conditions were found. Calipers were used to measure the tumor size over time, and the tumor size was calculated based on the calculation formula: major axis×(minor axis squared)÷2. At the point when the tumor size was 100 to 200 mm^3, the mice were separated into groups such that the average values of the tumor sizes and the mouse body weights were uniform among the test groups (five mice per test group), and the drug was administered into the caudal vein (0.2 mL/20 g; 3 times in 7-day intervals).

[6] = system: ACHN, human renal cancer cell line; experiment: Antitumor activity of eribulin mesylate in ACHN cancer-bearing nude mice (Embodiment 15, FIG. 8); format: in vivo; conditions: free body 2 mg/kg, 3 mg/kg and 4 mg/kg, 3 times in 7-day intervals, 45 days after the start of administration
Method: ACHN (obtained from the American Type Culture Collection), which is a human renal cancer cell line, was cultured and grown in a 10% bovine fetal serum-containing MEM culture. The cells were separated from the flask using 0.05% Trypsin-EDTA solution and collected. After washing with PBS, the cells were suspended in PBS so as to be 5×10^7 cells/mL and then kept on ice. 0.1 mL of cell suspension liquid was subcutaneously injected in the right ventral portion of 6-week old nude mice (Charles River Laboratories Japan, Inc.). Each mouse was observed daily, and notes were made appropriately in cases where abnormal conditions were found. Calipers were used to measure the tumor size over time, and the tumor size was calculated based on the calculation formula: major axis×(minor axis squared)÷2. At the point when the tumor size was 150 to 200 mm^3, the mice were separated into groups such that the average values of the tumor sizes and the mouse body weights were uniform among the test groups (five mice per test group), and the drug was administered into the caudal vein (0.2 mL/20 g; 3 times in 7-day intervals).

[7] = Maximum tolerance dose of eribulin mesylate free bodies; format: in vivo; conditions: free body of eribulin mesylate, caudal vein, nude mice
[8] = Measurement of the entrapment ratio (ultracentrifugation, HPLC of active compound in the filtrate); format: physicochemical; conditions: E7107, internal phase 250 mM HP-β-cyclodextrin/100 mM citric acid (pH=5.5)
Method: The entrapment ratio was determined as described below.
The entrapment ratio was calculated using the formula below.

[9] = system: WiDr, human colon cancer cell line; experiment: Therapeutic effect of E7107 on tumor growth in WiDr cancer-bearing nude mice (Embodiment 10); format: in vivo; conditions: 2.5 mg/kg single dose into caudal vein; 5 days after administration
Method: (§1) WiDr (obtained from Dainippon Sumitomo Pharma Co., Ltd.), which is a human colon cancer cell line, was cultured and grown in a 10% bovine fetal serum-containing RPMI1640 culture. The cells were separated from the flask using 0.05% Trypsin-EDTA solution and collected. After washing with PBS, the cells were suspended in Hank's Balanced Salt Solution (manufactured by GIBCO) so as to be 5×10^7 cells/mL and kept on ice. 100 μL of cell suspension liquid was subcutaneously injected in the right ventral portion of 6- to 8-week old nude mice (CLEA Japan, Inc.). Each mouse was observed daily, and notes were made appropriately in cases where abnormal conditions were found. Calipers were used to measure the tumor size over time, and the tumor size was calculated based on the calculation formula: major axis×(minor axis squared)÷2. Moreover, the mouse body weight was also measured over time. At the point when the tumor size was 100 to 200 mm^3, the mice were separated into groups such that the average values of the tumor sizes and the mouse body weights were uniform among the test groups (five mice per test group). […]
(§2) The tumor-growth suppression effect and the body weight loss 5 days after administration were statistically analyzed by a parametric method. […]

[10] = Body weight of WiDr cancer-bearing nude mice (Embodiment 10); format: in vivo; conditions: average body weight; 2.5 mg/kg single dose; 5 days after administration
Method: as §1, §2

[11] = blood plasma, 1.0 mg/kg into caudal vein, LOX cancer-bearing mice
[12] = tumor tissue, 1.0 mg/kg into caudal vein, LOX cancer-bearing mice

Compound: CC(C(=O)O)c1cccc(C(=O)c2ccccc2)c1 (stereo not drawn) [ketoprofen]
- Entrapment ratio ([1]; MLVs (multilamellar vesicles)): approximately 75%
- Entrapment ratio ([1]; SUVs (small unilamellar vesicles)): approximately 55%

Compound: C=C1C[C@@H]2CC[C@@]34C[C@H]5O[C@H]6[C@@H](O3)[C@H]3O[C@H](CC[C@@H]3O[C@H]6[C@H]5O4)CC(=O)C[C@@H]3[C@@H](OC)[C@@H](C[C@H](O)CN)O[C@H]3C[C@H]3O[C@@H](CC[C@@H]1O2)C[C@@H](C)C3=C [eribulin mesylate]
- MRT [2, 11]: 3.3 h
- clearance [2, 11]: 40.3 mL/min/kg
- half-life [2, 11]: 3.7 h
- Vd ([2]; blood plasma, 1.0 mg/kg into caudal vein, LOX cancer-bearing mice, read-out: Vss): 8.03 L/kg
- AUC(0-inf) [2, 12]: 6290 ng·h/mL
- AUC(0-t) [2, 12]: 4650 ng·h/mL
- Cmax [2, 12]: 323 ng/g
- MRT [2, 12]: 27.7 h
- Tmax [2, 12]: 0.25 h
- half-life [2, 12]: 17.8 h
- AUC(0-inf) ([2]; plasma, 1 mg/kg): 365 ng·h/mL
- AUC(0-t) ([2]; plasma, 1 mg/kg): 363 ng·h/mL
- Complete disappearance of the tumor / mice completely healed [3]: 2 out of 5
- Tumor-reducing effect [4]: tumor-reducing effect was not obtained
- Tumor-reducing effect [5]: tumor-reducing effect was not obtained
- Tumor volume versus the untreated group [6]: no significant difference
- Maximum tolerance dose [7]: 4 mg/kg
- Maximum tolerance dose ([7]; listed as free bodies): 4.0 mg/kg

- Entrapment ratio (%) ([8]; 5° C., 5 minutes): 0%
- Entrapment ratio (%) ([8]; 5° C., 1 hour): 0%
- Entrapment ratio (%) ([8]; 5° C., 6 hours): 0%
- Entrapment ratio (%) ([8]; 20° C., 1 minute): 0%
- Entrapment ratio (%) ([8]; 20° C., 5 minutes): 0%
- Entrapment ratio (%) ([8]; 20° C., 1 hour): 13.1%
- Entrapment ratio (%) ([8]; 20° C., 6 hours): 49.6%
- Entrapment ratio (%) ([8]; 40° C., 1 minute): 4.1%
- Entrapment ratio (%) ([8]; 40° C., 5 minutes): 87.5%
- Entrapment ratio (%) ([8]; 50° C., 1 minute): 56.8%
- Entrapment ratio (%) ([8]; 60° C., 1 minute): 99.2%
Compound: CCC(O)C(C)C1OC1CC(C)(O)/C=C/C=C(\C)C1OC(=O)CC(O)CCC(C)(O)C(OC(=O)N2CCN(C3CCCCCC3)CC2)/C=C/C1C (stereo not drawn) [E7107, (8E,12E,14E)-7-{(4-cycloheptylpiperazin-1-yl)carbonyl}oxy-3,6,16,21-tetrahydroxy-6,10,12,16,20-pentamethyl-18,19-epoxytricosa-8,12,14-trien-11-olide]
- Tumor (mm^3) [9]: 204.34 mm^3
- Body weight [10]: 20.32 g
